Laboratory results: article PMC11859423, “Fluorescent Probes to Image the KCa3.1 Channel in Tumor Cells” (Pharmaceutics, 2025)
“And” between values parts separate entries of the source, which are not always exact repeats. Equal entries are not always repeated. “Also recorded” adds a separate entry of the source. Where two headings read alike, the source gives them in different places.

Legend:
[1] = cited from earlier work; for Absorption λmax / Emission λmax / Stokes Shift / ΦF absolute quantum yield / τ photoluminescence lifetime: 298 K
[2] = molecular target: T1, KCa3.1 channel in A549-3R cells (Homo sapiens, UniProt O15554); assay: Staining of fixed A549-3R tumor cells (Protocol 1), fluorescence microscopy; format: cell-based; conditions: 10 µM in PBS, 10 min, 4 °C, Protocol 1
T1 construct: the non-small cell lung cancer cell line A549-3R with a high expression of the KCa3.1 channel was employed; endogenous in cells; host or cells: A549-3R cells
Method: For the fixation of the cells, the DMEM medium was removed from the glass bottom dish after incubation for 24 h, and the cells were washed with 1 mL of PBS. Subsequently, 1 mL of 4% paraformaldehyde in PBS solution was added to the glass bottom dish and the mixture was incubated for 30 min at room temperature. Thereafter, the cells were washed five times with 1 mL of PBS and used for the cell staining experiments.
After fixation of the cells (Section 2.10.2), 300 µL of the 10 µM staining solution was added to the glass bottom dish. The cells were incubated for 10 min at 4 °C in a dark chamber. After incubation, the cells were washed five times with 1 mL of PBS and used subsequently for fluorescence microscopy.
An Axiovert 200 inverted microscope (Carl Zeiss AG, Jena, Germany) with a ×100 oil immersion objective and a digital camera (SPOT RT SE from Diagnostic Instruments Inc., Livingston, UK) were used. The camera was controlled by MetaVue software (version 6.3r6, Visitron, Germany). Two different filter sets were employed, the FITC filter set (Carl Zeiss Filter Set 10 bandwidth excitation filter 450–490, color splitter 510, bandpass filter 515–565) and the TRITC filter set (Carl Zeiss Filter Set 15, bandpass excitation filter 546/12, dichroic mirror 580, emission filter Long Pass 590).
Using the free imaging software ImageJ (1.53f51, NIH, USA), squares with an edge length of 50 × 50 pixels, corresponding to an area of 9 µm^2, were randomly placed in a cell and signals with Full Width at Half Maximum (FWHM) of ≤5 pixels (~300 nm) were counted as a KCa3.1 channel. For the evaluation, 7 squares were analyzed.
For the staining experiments, the non-small cell lung cancer cell line A549-3R with a high expression of the KCa3.1 channel was employed. An optimized staining protocol (Protocol 1) described previously was followed to analyze the imaging properties of the fluorescent probes. In brief, the 10 µM solution of the senicapoc–dye conjugate in PBS was added to adherent A549-3R cells in a glass bottom dish and the set-up was incubated for 10 min at 4 °C in a dark chamber. After careful washing, the cells were analyzed with a fluorescence microscope.
The images were analyzed with respect to size and density of the fluorescent dots. For this purpose, a square with a size of 50 × 50 pixels was randomly placed on the cell images using ImageJ. The intensities of the signals within the square were analyzed to calculate the Full Width at Half Maximum (FWHM) for each selected dot, which represents a measure for the signal size. For the accurate representation of a single KCa3.1 channel, the FWHM should be in the range of five pixels. Signals with a FWHM of ≤5 pixels within the square were regarded as labeled KCa3.1 channels and the number of identified channels was used to determine the density of the ion channels on the cells (Figure S8, Supplementary Materials).

[3] = UV-Vis absorption and time-resolved photoluminescence spectroscopy; format: physicochemical
Method: All solvents used were of spectrometric grade (Uvasol®). UV-visible absorption spectra were measured using a Shimadzu UV–VIS spectrophotometer (UV-3600i). Photoluminescence quantum yields were measured with a Hamamatsu Photonics absolute PL quantum yield measurement system (C9920-02) equipped with a L9799-01 CW Xe light source (150 W), a monochromator, a C7473 photonic multi-channel analyzer, an integrating sphere and employing U6039-05 software, version 3.6.0. (Hamamatsu Photonics, Ltd., Shizuoka, Japan). Steady-state excitation and emission spectra were recorded on a FluoTime 300 spectrometer from PicoQuant equipped with a 300 W ozone-free Xe lamp (200–1100 nm), a 10 W Xe-flash lamp (200–1100 nm, pulse width ca. 1 µs) with repetition rates of 1–300 Hz, a double-grating excitation monochromator (Czerny–Turner type, grating with 1200 lines/mm, blaze wavelength: 300 nm), diode lasers (pulse width < 20 ps) operated by a computer-controlled laser driver PDL-828 “Sepia II” (repetition rate up to 80 MHz, burst mode for slow and weak decays), two emission monochromators (Czerny–Turner, selectable between double-grating blazed at 500 nm with 2.7 nm/mm dispersion and 1200 lines/mm, or single-grating blazed at 1250 nm with 5.4 nm/mm dispersion and 600 lines/mm) with adjustable slit width between 25 μm and 7 mm. Glam–Thompson polarizers for excitation (after the Xe-lamps) and emission (after the sample) were used. Different sample holders (Peltier-cooled mounting unit ranging from −15 to 110 °C or an adjustable front-face sample holder), along with two detectors (namely a PMA Hybrid-07 from PicoQuant with transit time spread FWHM < 50 ps, 200–850 nm, or a H10330C-45-C3 NIR detector with transit time spread FWHM 0.4 ns, 950–1400 nm from Hamamatsu) were used. Steady-state spectra and photoluminescence lifetimes were recorded in TCSPC mode by a PicoHarp 300 (minimum base resolution 4 ps) or in MCS mode by a TimeHarp 260 (where up to several ms can be traced). Emission and excitation spectra were corrected for source intensity (lamp and grating) by standard correction curves. For samples with lifetimes in the ns order, an instrument response function calibration (IRF) was performed using a diluted Ludox® dispersion. Lifetime analysis was performed using the commercial EasyTau 2 software, version 2.3. (PicoQuant, Berlin, Germany). The quality of the fit was assessed by minimizing the reduced chi squared function (χ^2) and visual inspection of the weighted residuals and their autocorrelation.
Fluorescence microscopy was used for the analysis of KCa3.1 channel labeling of cells with fluorescent dyes. Therefore, the photophysical properties of fluorescently labeled senicapoc derivatives 15a, 21a, and 22 were determined. Since the fluorophores are separated from the rest of the molecule by a linker, the photophysical properties could be recorded using azide precursors 6a, 6b, and 7a as well.

[4] = logP by HPLC retention time correlation; format: physicochemical; conditions: standardized reversed phase HPLC system
Method: The logP values were recorded using HPLC analysis. Thus, the retention time of the test compound in a standardized reversed phase HPLC system is correlated with the retention times of compounds with known logP values.
In addition to the logD7.4 values, the logP values of the fluorescent probes were recorded by HPLC, i.e., after calibration of the method, the retention times were correlated with the logP values or the compounds [33]. […] Fluorescein-labeled ligands 21a and 21b are considerably more polar than the corresponding bodipy-labeled senicapoc derivatives.

[5] = general property stated without reference
[6] = measured in CH3CN, c = 10^−5 M, CH2CH2O linker instead of CH2CH2OCH2CH2O linker
[7] = solution (CH2Cl2 or CH3CN), c = 10^−5 M, 298 K

O=C1OC2(c3ccc(O)cc3Oc3cc(O)ccc32)c2ccccc21 [fluorescein, reference compound]
absorption maximum λmax [1, 5]: 485 nm
emission maximum λmax [1, 5]: 514 nm

CCC1=C(C)C2=C(c3ccc(OCCOCCN=[N+]=[N-])cc3)c3c(C)c(CC)c(C)n3[B-](F)(OC)[N+]2=C1C (stereo not drawn) [7b, 8-{4-[2-(2-Azidoethoxy)ethoxy]phenyl}-2,6-diethyl-4-fluoro-4-methoxy-1,3,5,7-tetramethyl-4-bora-3a,4a-diaza-s-indacene]
staining pattern of fixed A549-3R tumor cells [2]: a punctate staining pattern characteristic for the interaction with the ion channel was not observed; also recorded: high fluorescence intensity inside and around the nucleus

CO[B-]1(F)n2c(C)cc(C)c2C(c2ccc(OCCOCCN=[N+]=[N-])cc2)=C2C(C)=CC(C)=[N+]21 (stereo not drawn) [7a]
Absorption λmax ([1]; CH2Cl2, c = 10^−5 M): 501 nm
Emission λmax ([1]; CH2Cl2, c = 10^−5 M): 516 nm
Stokes Shift ([1]; CH2Cl2, c = 10^−5 M): 15 nm
ΦF absolute quantum yield ([1]; CH2Cl2, c = 10^−5 M): 0.43 ± 0.02
τ photoluminescence lifetime ([1]; CH2Cl2, c = 10^−5 M): 3.50 ± 0.01 ns

CCC1=C(C)C2=C(c3ccc(OCCOCCN=[N+]=[N-])cc3)c3c(C)c(CC)c(C)n3[B-](F)(F)[N+]2=C1C [6b, 8-[4-(2-(2-Azidoethoxy)ethoxy)phenyl]-2,6-diethyl-4,4-difluoro-1,3,5,7-tetramethyl-4-bora-3a,4a-diaza-s-indacene]
increase of absorption and emission maxima by two ethyl moieties at the bodipy core ([3]; 6b compared with 6a): 23 nm
Absorption λmax [1, 6]: 524 nm
Emission λmax [1, 6]: 537 nm
Stokes Shift [1, 6]: 13 nm
ΦF absolute quantum yield [1, 6]: 0.81 ± 0.02
τ photoluminescence lifetime [1, 6]: 6.32 ± 0.05 ns

CC1=CC(C)=[N+]2C1=C(CCCCn1cc(COc3ccc(C(C(N)=O)(c4ccccc4)c4ccc(F)cc4)cc3)nn1)c1c(C)cc(C)n1[B-]2(F)F (stereo not drawn) [15a, 2-[4-({1-[4-(4,4-Difluoro-1,3,5,7-tetramethyl-4-bora-3a,4a-diaza-s-indacen-8-yl)butyl]-1,2,3-triazol-4-yl}methoxy)phenyl]-2-(4-fluorophenyl)-2-phenylacetamide]
quantum yield ([3]; see Table 2): 96%
Absorption λmax [3, 7]: 501 nm
Emission λmax [3, 7]: 513 nm
Stokes Shift [3, 7]: 12 nm
ΦF absolute quantum yield [3, 7]: 0.96 ± 0.04
τ photoluminescence lifetime [3, 7]: 5.77 ns and 5.77 ± 0.02 ns
staining pattern of fixed A549-3R tumor cells [2]: unspecific staining; also recorded: unspecific labeling
chromatographic logP [4]: 4.8

CCC1=C(C)C2=C(CCCCn3cc(COc4ccc(C(C(N)=O)(c5ccccc5)c5ccc(F)cc5)cc4)nn3)c3c(C)c(CC)c(C)n3[B-](F)(OC)[N+]2=C1C (stereo not drawn) [16b, 2-[4-({1-[4-(2,6-Diethyl-4-fluoro-4-methoxy-1,3,5,7-tetramethyl-4-bora-3a,4a-diaza-s-indacen-8-yl)butyl]-1,2,3-triazol-4-yl}methoxy)phenyl]-2-(4-fluorophenyl)-2-phenylacetamide]
staining pattern of fixed A549-3R tumor cells [2]: unspecific staining; also recorded: unspecific labeling
chromatographic logP [4]: 5.4

CCC1=C(C)C2=C(c3ccc(OCCOCCn4cc(COc5ccc(C(C(N)=O)(c6ccccc6)c6ccc(F)cc6)cc5)nn4)cc3)c3c(C)c(CC)c(C)n3[B-](F)(F)[N+]2=C1C (stereo not drawn) [9b, 2-{4-[(1-{2-[4-(2,6-Diethyl-4,4-difluoro-1,3,5,7-tetramethyl-4-bora-3a,4a-diaza-s-indacen-8-yl)phenoxy]ethoxyethyl}-1,2,3-triazol-4-yl)methoxy]phenyl}-2-(4-flluorophenyl)-2-phenylacetamide]
staining pattern of fixed A549-3R tumor cells [2]: unspecific staining; also recorded: unspecific labeling
chromatographic logP [4]: 6.7

CC1=CC(C)=[N+]2C1=C(c1ccc(OCCOCCN=[N+]=[N-])cc1)c1c(C)cc(C)n1[B-]2(F)F [6a]
Absorption λmax ([1]; CH2Cl2, c = 10^−5 M): 501 nm
Emission λmax ([1]; CH2Cl2, c = 10^−5 M): 515 nm
Stokes Shift ([1]; CH2Cl2, c = 10^−5 M): 14 nm
ΦF absolute quantum yield ([1]; CH2Cl2, c = 10^−5 M): 0.48 ± 0.02
τ photoluminescence lifetime ([1]; CH2Cl2, c = 10^−5 M): 3.80 ± 0.02 ns

NC(=O)C(c1ccccc1)(c1ccc(F)cc1)c1ccc(OCCOCCOCCOCCNC(=S)Nc2ccc3c(c2)C(=O)OC32c3ccc(O)cc3Oc3cc(O)ccc32)cc1 (stereo not drawn) [21b, 2-(4-{12-[3-(3′,6′-Dihydroxy-3-oxo-3H-spiro[[2]benzofuran-1,9′-xanthen]-5-yl)thioureido]-1,4,7,10-tteraoxadodecan-1-yl}phenyl)-2-(4-fluorophenyl)-2-phenylacetamide]
staining pattern of fixed A549-3R tumor cells [2]: A weak green fluorescence of the membrane and an intense staining of the nucleus
chromatographic logP ([4]; HPLC at pH 6.0): 1.3
